In patent EP4707279A1, “SUBSTITUTED TRICYCLIC HETEROCYCLIC COMPOUND AS PHARMACEUTICAL FOR TREATMENT OR PREVENTION OF COVID-19” (priority 2023, dated 2024):

What was measured:
[1] = test system: VeroE6-TMPRSS2 cells; conditions: 48 hours, CellTiter-Glo
Protocol: (§1) To evaluate the cytotoxicity of the selected compound, CellTiter-Glo (registered trademark) Luminescent Cell Viability Assay (Promega Corporation, Madison, WI, USA) was conducted. Briefly, VeroE6-TMPRSS2 or Caco-2 cells (4×10^4 cells/well) were incubated with different concentrations of the compound for 48 hours, and then, the number of cells was measured as the amount of ATP in the cell lysate supernatant using CellTiter-Glo (registered trademark) Luminescent Cell Viability Assay method. The CC50 of the compound was calculated by GraphPad. The repeated test was conducted three times.
(§2) VeroE6 (ATCC CRL-1586 (registered trademark)) and Vero E6-TMPRSS2 (BPS Bioscience Catalog #78081) as well as Caco-2 cells (ATCC HTB-37 (registered trademark)) were purchased as commercial products and they were passaged in Dulbecco's Modified Eagle Medium (DMEM, Gibco, CA, USA) supplemented with 10% heat-inactivated fetal bovine serum (FBS, Gibco, CA, USA), 50 U/mL penicillin, and 50 µg/mL streptomycin. All antibiotics and supplements were purchased from Thermo Fisher Scientific, Inc. (Waltham, MA).

[2] = test system: Caco-2 cells; conditions: 48 hours, CellTiter-Glo
Protocol: as §1, §2

[3] = test system: SARS-CoV-2; assay: CPE inhibition assay, anti-SARS-CoV-2 virus activity in vitro (Test Example 4); assay type: cell-based
[4] = test system: SARS-CoV-2; assay: microbe, parasite or virus in culture; assay type: cell-based; conditions: Severe acute respiratory syndrome coronavirus 2, VeroE6-TMPRSS2 cells, read-out: inhibition of CPE
[5] = CPE inhibition at 10 µM, VeroE6-TMPRSS2 cells, MOI 0.01, third day post infection, average of three tests

## O=C(NCc1ccc2ccccc2c1)[C@@H]1CC[C@H]2N1C(=O)[C@@H](Cc1ccccc1)N1C(=O)N(Cc3ccccc3)C(=O)N(Cc3ccccc3)[C@]21O [Compound 1D, (6R,9S,11aR,11bR)-1,3,6-Tribenzyl-11b-hydroxy-N-(naphthalen-2-ylmethyl)-2,4,7-trioxo-2H-pyrrolo[2',1':3,4] pyridazine[1,2-a][1,3,5]triazine-9-carboxamide]
[1]
  CC50: 145 µM
[2]
  CC50: > 400 µM
[3]; 10 µM
  Anti SARS-CoV-2 activity: A (a CPE inhibition effect of 5% or more)

## CCC(CC)COC(=O)[C@H](C)N[P@](=O)(OC[C@H]1O[C@@](C#N)(c2ccc3c(N)ncnn23)[C@H](O)[C@@H]1O)Oc1ccccc1 [Remdesivir]
[4]
  inhibition at 10 µM: ≥ 90%

## Ethyl (6R)-1,3,6-tribenzyl-11b-hydroxy-2,4,7-trioxodecahydro-2H-pyrrolo[2',1':3,4] pyridazino[1,2-a] [1,3,5]triazine-9-carboxylate [Compound 22A]
[3]; [5]
  Anti SARS-CoV-2 activity: B (a CPE inhibition effect of less than 5% but 1% or more)

## Ethyl (6R,9S,11aR)-11b-hydroxy-6-isopropyl-2.4,7-trioxo-1,3-bis(thiophen-2-ylmethyl)decahydro-2H-pyrrolo[2',1':3,4] pyrazino[1,2-a][1,3,5] triazine-9-carboxylate [Compound 27A]
[3]; [5]
  Anti SARS-CoV-2 activity: A (a CPE inhibition effect of 5% or more)

## Ethyl (6R,9S,11aR,11bR)-1,3-dibenzyl-11b-hydroxy-6-(4-methoxybenzyl)-2,4.7-trioxodecahydro-2H-pyrrolo [2',1':3,4]pyrazino[1,2-a][1,3,5] triazine-9-carboxylate [Compound 6A]
[3]; [5]
  Anti SARS-CoV-2 activity: C (less than 1%)

## Ethyl (6R,9S,11aR,11bR)-1,3-dibenzyl-11b-hydroxy-6-methyl-2,4,7-trioxodecahydro-2H-pyrrolo[2',1':3,4]pyrazino[1,2-a] [1.3.5]triazine-9-carboxylate [Compound 2A]
[3]; [5]
  Anti SARS-CoV-2 activity: C (less than 1%)

## Ethyl (6R,9S,11aR,11bR)-1.3 dibenzyl 11b-hydroxy 6 isobutyl-2.4.7 trioxodecahydro-2H pyrrolo[2',1':3,4] pyrazino[1.2 a][1.3.5] triazine 9 carboxylate [Compound 30A]
[3]; [5]
  Anti SARS-CoV-2 activity: A (a CPE inhibition effect of 5% or more)

## Ethyl (6R.9S.11aR.11b R) 6 benzyl 11b-hydroxy 2,4,7 trioxo-1.3 bis(thiophen 2 ylm ethyl)decahydro-2H-pyrrolo[2',1':3,4] pyridazine[1,2-a] [1,3,5]triazine 9 carboxylate [Compound 18A]
[3]; [5]
  Anti SARS-CoV-2 activity: A (a CPE inhibition effect of 5% or more)

## Ethyl (6S,9R,11aS)-6-benzyl-11b-hydroxy-2,4.7-trioxo-1,3-bis(thiophen-2-ylmethyl) decahydro-2H-pyrrolo[2',1':3,4] pyrazino[1,2-a][1,3,5] triazine-9-carboxylate [Compound 23A]
[3]; [5]
  Anti SARS-CoV-2 activity: A (a CPE inhibition effect of 5% or more)

## Ethyl (6S,9R,11aS,11bS)-1,3,6-tribenzyl-11b-hydroxy-2,4.7-trioxodecahydro-2H-pyrrolo [2',1':3,4]pyrazino[1,2-a][1,3,5] triazine-9-carboxylate [Compound 4A]
[3]; [5]
  Anti SARS-CoV-2 activity: C (less than 1%)
